Measurements: USRE30548E, “Peptides which effect release of hormones” (The Salk Institute for Biological Studies, priority 1979, dated 1981)
Bridge positions count the residues as written; N and C are the ends. Ends that are not written are not given here.

Columns and labels:
insulin secretion = assay: In vivo bioassay: inhibition of insulin release in anesthetized rats (portal vein plasma); design: species or system Sprague-Dawley-CD rats; conditions: in vivo rat, via external jugular vein; somatostatin = 100
Description: (§1) An investigation of the effect of somatostatin, dihydrosomatostatin, (as controls) and the peptides of the invention to inhibit the release of glucagon and insulin was made as follows:
(§2) In vivo Bioassay: Male Sprague-Dawley-CD rats weighing 180-200 g housed in temperature and humidity controlled quarters with 14h light and 10h dark (light 0700-[…]) were used in all experiments. Animals were fed a standard ration and tap water ad libitum. Experiments were carried out at least 5 days after arrival of rats from the supplier between the hours 1400 to 1600. After ether anesthesia, peptides or saline were administered in a volume of 0.2 ml. via the external jugular vein. Animals remained anesthetized until the time of blood collection from the portal vein. […]
(§3) Plasma was stored at -20° C. for insulin and glucagon determinations. Insulin levels were determined by the method of Herbert et al, J. […]. Endocr. […] Glucagon was determined by the method of Faloona and Unger, in Jaffe et al ed., Methods of Hormone Radioimmunoassay, Academic Press, New York, 1974, p. […] was determined by the glucose oxidase method, utilizing a Beckman Glucose Analyzer.
(§4) All experiments were carried on in a randomized block design. Following analysis of variance difference between treatments were determined by the multiple range tests of Dunnett and Duncan. Potency values were calculated from four or six point bioassays.

glucagon secretion = assay: In vivo bioassay: inhibition of glucagon release in anesthetized rats (portal vein plasma); design: species or system Sprague-Dawley-CD rats; conditions: in vivo rat, via external jugular vein; somatostatin = 100
Description: as §1, §2, §3, §4

somatostatin (AGCKNFFWKTFTSC; disulfide 3-14; ends not checked; UniProt P61278 103-116, looked up)
percent effectiveness for inhibiting secretion of Insulin, somatostatin taken as the base (insulin secretion): 100% | percent effectiveness for inhibiting secretion of Glucagon, somatostatin taken as the base (glucagon secretion): 100%
